US7138122B2, “Therapeutic systems” (Enzacta R & D Limited, priority 1997, dated 2006)
“Also recorded” adds a separate entry of the source.

Columns and labels:
wild-type V79 cells = assay: Uptake of NQO2 co-substrates into V79 cells (fluorimetry); format: in vitro ADME, Chinese hamster; conditions: for uptake / internalisation into cells: 1 mM co-substrate, 37° C.
Method: The uptake of various NQO2 co-substrates into V79 cells was determined by fluorimetry. V79 cells were seeded into T25 tissue culture flasks and allowed to grow to confluence (^−2×10^7 cells). The growth medium was removed and replaced with 10 mls of fresh medium containing 1 mM of co-substrate and incubated at 37° C. At various the medium was removed and the cell monolayer washed ×5 with 50 mL of ice cold PBS. The cells were removed by trypsinisation and pelleted by centrifugation. The cell pellet was resuspended in alkaline lysis buffer (KOH 0.5M; 36% W/v CsCl; in 50% aqueous ethanol) disrupted by agitation and the cell debris removed by centrifugation at 10,000 g. The concentration of co-substrate was determined by fluorimetry (excitation 360 nm, emission 450 nm, slits 5nm) by diluting 100μl of supernatant in 2.9ml of 100 mM sodium bicarbonate buffer pH 10. The fluorimeter was calibrated against the appropriate standard. All measurements were done in triplicate.

Rat DT-diaphorase = target: T1, Rat DT-diaphorase (Rattus norvegicus, UniProt P05982); assay: Use of co-substrates by rat DT diaphorase for reduction of CB1954; format: biochemical
T1 sequence (P05982 2-274 limits assumed): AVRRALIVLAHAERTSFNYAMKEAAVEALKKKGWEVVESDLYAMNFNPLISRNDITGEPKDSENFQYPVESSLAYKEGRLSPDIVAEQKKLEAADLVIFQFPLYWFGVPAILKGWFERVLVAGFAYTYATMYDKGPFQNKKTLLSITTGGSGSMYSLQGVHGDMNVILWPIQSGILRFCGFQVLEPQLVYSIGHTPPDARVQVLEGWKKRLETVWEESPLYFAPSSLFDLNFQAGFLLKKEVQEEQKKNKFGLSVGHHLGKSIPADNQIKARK

E. coli nitroreductase = E. coli nitroreductase (Escherichia coli, UniProt P38489); assay: Use of co-substrates by E. coli nitroreductase for reduction of CB1954; format: biochemical
Chain of E. coli nitroreductase (P38489 whole entry): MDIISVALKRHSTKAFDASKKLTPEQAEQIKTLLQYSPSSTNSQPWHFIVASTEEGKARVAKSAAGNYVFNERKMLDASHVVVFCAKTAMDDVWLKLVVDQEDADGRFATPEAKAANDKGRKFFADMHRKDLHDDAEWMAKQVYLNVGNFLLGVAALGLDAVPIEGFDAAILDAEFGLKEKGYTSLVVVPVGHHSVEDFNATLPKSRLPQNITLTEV

[1] = Effect on the body weight of normal mice (in vivo toxicity); conditions: intravenous (tail vein), 8 day period
Method: Mice (6 groups of 3) were injected intravenously (tail vein) with either compound 1 or 2 at the doses shown and the weight of the mice was monitored over an 8 day period. Control mice received vehicle (phosphate buffered saline) only.

[2] = system: human T98G gliobastoma cells; assay: Cytotoxicity of CB 1954 on T98G glioblastoma cells with NQO2 co-substrates; conditions: 144 hr in presence of CB 1954
NQO2 [3] = target: T2, NQO2 (Homo sapiens, UniProt P16083); assay: Co-substrate activity with NQO2 for reduction of CB 1954 (HPLC); format: biochemical; parameters: restriction site were added to the 5′ and 3′-ends of the full-length NQO2 cDNA; made in house; host or cells: E. coli (expression vector pKK233-2, plasmid pKK-hNQO2); conditions: for Km: of NQO2 for the co-substrate, CB1954 as electron acceptor (100 μM); for kcat: of NQO2 with the co-substrate, CB1954 as electron acceptor; for ability to act as co-substrate for NQO2: reduction of CB 1954 by NQO2; for RELATIVE RATE OF REDUCTION: CB 1954 reduction by NQO2, co-substrate initial 500 μM, CB 1954 initial 100 μM
T2 sequence (P16083 1-231): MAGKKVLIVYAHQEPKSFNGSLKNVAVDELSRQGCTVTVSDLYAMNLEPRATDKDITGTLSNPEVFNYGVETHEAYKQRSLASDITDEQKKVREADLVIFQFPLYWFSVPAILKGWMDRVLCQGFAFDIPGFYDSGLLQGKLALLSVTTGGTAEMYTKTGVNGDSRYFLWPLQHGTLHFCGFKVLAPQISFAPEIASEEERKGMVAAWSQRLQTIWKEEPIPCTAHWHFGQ
Method: The effect of various co-substrates on CB 1954 was determined as above but NADH. NADPH or NMNH was substituted for the NRH and CB 1954 was used at a fixed concentration of 100 μM. The enzyme concentration was 5 μg/ml. The reduction of CB 1954 was monitored by measuring both the decrease in its corresponding peak area on the HPLC trace and the increase in the area of the peak corresponding to the reduction product 5-(aziridin-1-yl)-4-hydroxylamino-2-nitrobenzamide. The relative rates of reduction were determined at 10% reduction of CB1954 from a graph plotting CB 1954 reduction against time. The time axis was normalised to the equivalent of 10 μg/ml of NQO2.
The activity of various potential co-substrates was determined by HPLC analysis in the presence of CB1954 and NQO2. To determine the kinetic parameters NQO2 (1 μg/ml) was incubated with NRH (5000 μM) and CB1954 at different concentrations (0.1 to 2 mM) in sodium phosphate buffer (10MM, pH 7) at 37° C. At various times, aliquots (10 μl) were injected onto a Partisphere SCX (250×4.5 mm) HPLC column (Whatman Ltd) and eluted isocratically (1.5 ml/min) with 50 mM aqueous sodium phosphate containing 1% methanol. The eluate was continuously monitored for absorption at 320 nm. […] The reduction of CB1954 was monitored by quantifying the increase in the area of the peak corresponding to the reduction product 5-(aziridin-1-yl)-4-hydroxylamino-2-nitrobenzamide. All the assays were initiated by addition of the enzyme and performed in duplicate. The kinetic parameters were calculated by plotting the initial rate of reduction at each concentration of CB1954 against that concentration and fitting the data to the Michaelis-Menton equation using a computer programme (Fig P). Values were confirmed by transforming the data and fitting it to various linear forms of the equation by regression analysis.
The effect of various co-substrates on CB1954 reduction was determined as above but the co-substrate was substituted for the NRH and C1954 was used at a fixed concentration of 100 μM. The enzyme concentration was 1 or 5 μg/ml. The reduction of CB1954 was monitored by measuring both the decrease in its corresponding peak area on the HPLC trace and the increase in the area of the peak corresponding to the reduction product 5-(aziridin-1-yl)-4-hydroxylamino-2-nitrobenzamide. The relative rates of reduction were determined at 10% reduction of CB1954 from a graph plotting CB1954 reduction against time. The time axis was normalised to the equivalent of 10 μg/ml of NQO2. The kinetic parameters of NQO2 for the various co-substrates was determined as for CB1954 except that the initial concentration of CB1954 was constant at 100 μm whilst that of the co-substrate was varied from 0 to 2 mM. The enzyme concentration was 0.5 μg/ml.

NQO2 [4] = target: T2, NQO2; assay: Inhibition of NQO2 by flavones; format: biochemical; conditions: competitive with respect to NRH; read-out: K1 (competitive inhibitor with respect to NRH)
[5] = substrate: NC(=O)c1cc(N2CC2)c([N+](=O)[O-])cc1[N+](=O)[O-]; assay: Kinetic parameters of NQO2 with respect to CB 1954 (HPLC); format: biochemical, human; conditions: other: with respect to CB 1954; NRH as co-substrate; pH 7.0; 37.0 °C
Method: Recombinant human NQO2 was prepared in E. coli. A NcoI and a HindIII restriction site were added to the 5′ and 3′-ends of the full-length NQO2 cDNA, respectively, using a PCR method with primers and nucleotide sequences derived from the 5′ and 3′-ends of the cDNA. The PCR product was resolved over a 1% agarose gel and then extracted using the QiAquick Gel Extraction Kit (Qiagen Inc). The gel-purified PCR product was cloned into PCRII vector from the TA cloning kit (Invitrogen Co) and the correct sequence of the PCR product was checked by dideoxy sequencing. The resulting construct was religated into the E. coli expression vector, pKK233-2 (Pharmacia) through the engineered NcoI and HindIII restriction sites. The expression plasmid was designated pKK-hNQO2. […] The purified NQO2 preparation was analysed by SDS-PAGE electrophoresis. The activity of NQO2 in the presence of CB 1954, and various cofactors was determined by HPLC. […] The eluate was continuously monitored for absorption at 320 nm. […] The reduction of CB 1954 was monitored by quantifying the increase in the area of the peak corresponding to the reduction product 5-(aziridin-1-yl)-4-hydroxylamino-2-nitrobenzamide. […] The kinetic parameters were calculated by plotting the initial rate of reduction at each concentration of CB 1954 against that concentration and fitting the data to the Michales-Menton equation using a computer programme (FigP). […]

With `NC(=O)C1=CN(CCCS(=O)(=O)O)C=CC1` [Compound 1, 1-(3-sulfonatopropyl)-dihydronicotinamide] the “uptake / internalisation into cells” value (wild-type V79 cells) was “excluded from the cells; also recorded: do not expect it to enter cells and this is what is observed”, the “uptake / internalisation into cells” value (wild-type V79 cells; listed as compound 1) was “excluded from cells; also recorded: not able to enter the cells” and the “ability of rat DT diaphorase to use as co-substrate” value (shortened to “ability of rat DT diaphorase to use”) (Rat DT-diaphorase) was “able to use”. The “ability of E. coli nitroreductase to use as co-substrate” value (“ability of E. coli nitroreductase” for short) (E. coli nitroreductase) was “not able to use either”, the “intrinsic toxicity as judged by body weight loss” value [1] was “no evidence of intrinsic toxicity” and the “increase of the cytotoxicity of CB 1954 by added co-substrate” value [2] was “did not potentiate; also recorded: no potentialtion is observed”. The Km (NQO2 [3]) was 1080 ± 135 µM and the kcat (NQO2 [3]) was 25.5 s⁻¹.

With `NC(=O)CN1C=CCC(C(N)=O)=C1` [Compound 2, 1-(carboxamidomethyl)-dihydronicotinamide] the “internalisation relative to NRH” value (wild-type V79 cells) was “about 10 % of NRH”, the “uptake / internalisation into cells” value (wild-type V79 cells) was “poorly internalised” and the “ability of rat DT diaphorase to use” value (Rat DT-diaphorase) was “able to use”. The “ability of E. coli nitroreductase” value (E. coli nitroreductase) was “not able to use either”, the “intrinsic toxicity as judged by body weight loss” value [1] was “no evidence of intrinsic toxicity” and the Km (NQO2 [3]) was 198 ± 19 µM. It also gave a kcat (NQO2 [3]) of 12.5 s⁻¹.

For `NC(=O)C1=CN(CCc2ccccc2)C=CC1` [Compound 11], the “ability to act as co-substrate for NQO2” value (NQO2 [3]) was “not cosubstrates; also recorded: poor co-substrate”.

In the case of `NC(=O)C1=CN(Cc2ccccc2)C=CC1` [Compound 8, 1-benzyl-dihydronicotinamide], the “ability to act as co-substrate for NQO2” value (NQO2 [3]) is reported as “not cosubstrates” and the “ability to act as co-substrate for NQO2” value (NQO2 [3]; listed as compound 8) is reported as “not co-substrates”.

In the case of `NC(=O)C1=CN([C@@H]2O[C@H](COP(=O)(O)O)[C@@H](O)[C@H]2O)C=CC1` [NMNH], the “RELATIVE RATE OF REDUCTION” value (NQO2 [3]) is reported as 5.6.

For `NC(=O)C1=CN([C@@H]2O[C@H](COP(=O)(O)OP(=O)(O)OC[C@H]3O[C@@H](n4cnc5c(N)ncnc54)[C@H](O)[C@@H]3O)[C@@H](O)[C@H]2O)C=CC1` [NADH], the “ability of rat DT diaphorase to use” value (Rat DT-diaphorase) was “can use NADH as a co-substrate”, the “ability of E. coli nitroreductase” value (E. coli nitroreductase) was “can use NADH as a co-substrate” and the “RELATIVE RATE OF REDUCTION” value (NQO2 [3]) was 1.0. For the same molecule, the “ability to act as co-substrate for NQO2” value (NQO2 [3]) was “not readily catalysed; also recorded: not cosubstrates; also recorded: poor co-substrates”.

In the case of `O=c1c(O)c(-c2ccc(O)c(O)c2)oc2cc(O)cc(O)c12` [Quercetin, 3,5,7,3′,4′-pentahydroxyflavone], the Ki (NQO2 [4]) is reported as 27 nM.

In the case of `O=C(O)C1=CN(C2O[C@H](COP(=O)(O)O)[C@@H](O)[C@H]2O)C=CC1` (some centres unmarked) [nicotinic acid mononucleotide (reduced)], the “ability to act as co-substrate for NQO2” value (NQO2 [3]) is reported as “not co-substrates”.

In the case of `NC(=O)C1=CN([C@@H]2O[C@H](COP(=O)(O)OP(=O)(O)OC[C@H]3O[C@@H](n4cnc5c(N)ncnc54)[C@H](OP(=O)(O)O)[C@@H]3O)[C@@H](O)[C@H]2O)C=CC1` [NADPH], the “RELATIVE RATE OF REDUCTION” value (NQO2 [3]) is reported as 1.24 and the “ability to act as co-substrate for NQO2” value (NQO2 [3]) is reported as “not readily catalysed; also recorded: not cosubstrates; also recorded: poor co-substrates”.

B1: Recombinant human NQO2 (Homo sapiens) (protein)
chain: MAGKKVLIVYAHQEPKSFNGSLKNVAVDELSRQGCTVTVSDLYAMNLEPRATDKDITGTLSNPEVFNYGVETHEAYKQRSLASDITDEQKKVREADLVIFQFPLYWFSVPAILKGWMDRVLCQGFAFDIPGFYDSGLLQGKLALLSVTTGGTAEMYTKTGVNGDSRYFLWPLQHGTLHFCGFKVLAPQISFAPEIASEEERKGMVAAWSQRLQTIWKEEPIPCTAHWHFGQ
notes: restriction site were added to the 5′ and 3′-ends of the full-length NQO2 cDNA; made in house; host or cells: E. coli (expression vector pKK233-2, plasmid pKK-hNQO2)
With B1 the Km [5] was 263 ± 13 µM and the kcat [5] was 6.01 s⁻¹.
